One may read the IC50 as the concentration at which inhibition is half-maximal. A word on the inhibition: it is the drop in the measured response relative to a control, in per cent. By Ki is commonly meant a measure of affinity in units of concentration, obtained from inhibition or displacement. One may read the half-life as the time needed for the level to fall by half in the phase considered.

Series [1] deals with βGLU. Particulars: cited from earlier work.
The subject of series [2] is male Fischer rats. The settings on record: cited from earlier work; for reduction of aberrant crypt foci formation: 5 weeks, vs azoxymethane-controls.
The test system of series [3] is βGLU. Format: biochemical.
The subject of series [4] is newborns. The settings on record: cited from earlier work.
The test system of series [5] is male Wister rats. The settings on record: cited from earlier work; for tumour size: from 2 cm.
For series [6], the system named is bacterial βGLU. The settings on record: cited from earlier work.
In series [7] the test system is whole human gut bacterial βGLU (eight bacterial isolates). The settings on record: cited from earlier work.
The test system of series [8] is E. coli βGLU. Particulars: cited from earlier work.
In series [9] the test system is rat liver βGLU. The settings on record: cited from earlier work.
The subject of series [10] is male ICR mice. The settings on record: cited from earlier work.
Series [11] concerns male Wistar rats. Particulars: cited from earlier work.
In series [12] the test system is bovine liver βGLU. Particulars: cited from earlier work.
For series [13], the system named is E. coli βGLU. The series is described as follows: E. coli βGLU inhibition. Format: biochemical.
For series [14], the system named is 3T3 cells. Particulars: cited from earlier work.
The test system of series [15] is bacterial βGLU. Format: biochemical.
In series [16] the test system is BALB/cJ mice. Particulars: 10 μg twice daily with 50 mg/kg CPT-11 once daily; cited from earlier work.
The conditions of series [17]: cited from earlier work.
Series [18] relates to Wistar rats. Particulars: 0.8 μg inhibitor, 3 mg/kg diclofenac; cited from earlier work.
For series [19], the system named is neutrophil-derived βGLU. Particulars: 1 μM; cited from earlier work.
[20] abbreviates: […] test concentration, US 7,294,330 B2.

Like-named read-outs stand apart in the source and are kept apart here. Bounds are passed on as bounds.

With `O=C(Cn1c(-c2ccccn2)nc2ccccc21)c1ccc(F)cc1` [Compound 4-F], the IC50 in series [1] was 26.3 µM.
Regarding `CC(=O)O[C@@H]1C(=O)O[C@H]2[C@@H]1OC(=O)[C@@H]2OC(C)=O` [Compound 6, 2,5-di-O-acetyl-D-glucaro-1,4:6,3-dilactone], the “reduction of aberrant crypt foci formation” value in series [2] (0.5% in diet) is reported as “over 48.6%”; in series [2] (2% in diet), above 55.3%. For the same compound, the “inhibition of colon carcinogenesis” value in series [2] (post-initiation phase, 32 weeks treatment (D-GL: 2%)) is “over 70%”.
Regarding `COC(=O)[C@]1(Cc2ccc(O)c(C=O)c2)OC(=O)C(O)=C1c1ccc(O)cc1` [Compound 8], in series [3], the “fold stronger potency than prenylated isomer (9)” value was 16 fold and the “fold superior potency compared to D-SAL” value is reported as 8 fold.
Take `N[C@@H](CC(=O)O)C(=O)O` [Compound 10, L-aspartic acid]: the “transcutaneous bilirubin levels, lower than control” value in series [4] (6 doses, 180 mg/5 ml of water/day, first week of life) is 25%. Also, in series [4], the adverse effects result is recorded as “no adverse effects”. Moreover, the “inhibition of βGLU” value in series [1] (100 μM) was around 86%. Moreover, the “fold more potent than D-isomer” value in series [3] came to 100 fold.
Consider `O=c1cc(-c2ccc(O)c(O)c2)oc2cc(O)cc(O)c12` [Compound 11, Luteolin], for which, in series [5] (0.1, 0.2 or 0.3 mg/kg body weight/day p.o., 30 weeks, vs DMH-controls), the “bacterial βGLU activity” value is “significantly reduced”. For the same compound, the “reduction in tumour incidence” value in series [5] was “up to 90%”. Also, the values for the tumour size in series [5] (initiation stage) and in series [5] (post-initiation stage) were 0.25 cm and 0.50 cm, respectively.
Turning to `O=c1c(O)c(-c2ccc(O)cc2)oc2cc(O)cc(O)c12` [Compound 19, Kaempferol], the IC50 in series [6] is 36.5 µM.
Regarding `CC(C)=CC[C@]12Oc3cc(O)c([C@H]4C=C(C)C[C@H](c5ccc(O)cc5O)[C@H]4C(=O)c4ccc(O)cc4O)c(O)c3C(=O)[C@@]1(O)Oc1cc(O)ccc12` [Compound 20, Sanggenon C], in series [7], the IC50 was 12.5 µM and the inhibition is given as above 70%.
Consider `CC(C)=CCc1c(-c2ccc(O)cc2O)oc2c([C@H]3C=C(C)C[C@@H](c4ccc(O)cc4O)[C@@H]3C(=O)c3ccc(O)cc3O)c(O)cc(O)c2c1=O` [Compound 21, Kuwanon G], for which, in [7], the half-inhibitory concentration (IC50) is 7.4 µM and the inhibition is reported as above 70%.
Consider `C=CCc1ccc(O)c(OC)c1` [Compound 39, eugenol], for which the 50% inhibitory concentration (IC50) in series [1] was 616.68 µg/mL.
In the case of `O=c1c2cc(O)c(O)cc2oc2cc(O)c([C@@H]3O[C@H](CO)[C@@H](O)[C@H](O)[C@H]3O)c(O)c12` [Compound 40, mangiferin], in series [1], the IC50 was 38 µM.
As to `O=c1c(-c2ccc(O)cc2)coc2cc(O)ccc12` [Compound 41, daidzein], the IC50 in series [8] was 410 µg/mL; in series [9], 500 µg/mL.
As to `COc1c(O[C@@H]2O[C@H](CO)[C@@H](O)[C@H](O)[C@H]2O)cc2occ(-c3ccc(O)cc3)c(=O)c2c1O` [Compound 43, tectoridin], in [10] (100 mg/kg intraperitoneal), the hepatoprotection result is given as “failure to provide desired hepatoprotection”. Besides, the “serum AST, ALT and LDH levels relative to CCl4-treated controls” value in [10] (100 mg/kg oral) is “significantly lowering”. The presence in serum result in [10] (250 mg/kg oral, only tectorigenin detected) is given as “absence in the serum”.
Turning to `CC1(C)[C@@H](O)CC[C@]2(C)[C@H]3C(=O)C=C4[C@@H]5C[C@@](C)(C(=O)O)CC[C@]5(C)CC[C@@]4(C)[C@]3(C)CC[C@@H]12` [Compound 44, 18β-glycyrrhetinic acid], the IC50 in series [8] is 510 µM; in series [9], 42.5 µM. In [11] (100 mg/kg intraperitoneal), the “AST, ALT and LDH levels compared to CCl4-controls” value is on record as “significant reduction”.
In the case of `CC1(C)[C@@H](O[C@H]2O[C@H](C(=O)O)[C@@H](O)[C@H](O)[C@H]2O[C@@H]2O[C@H](C(=O)O)[C@@H](O)[C@H](O)[C@H]2O)CC[C@]2(C)[C@H]3C(=O)C=C4[C@@H]5C[C@@](C)(C(=O)O)CC[C@]5(C)CC[C@@]4(C)[C@]3(C)CC[C@@H]12` [Compound 45, glycyrrhizinic acid], the “AST, ALT and LDH levels compared to CCl4-controls” value in series [11] (100 mg/kg oral) is “significant reduction”. Further, the hepatoprotection result in series [11] (intraperitoneal administration) is “did not provide hepatoprotection”.
`C[C@]12C=C/C(=N\O)C=C1CC[C@H]1[C@@H]3[C@@H](O)C[C@](C)(O)[C@@]3(C)CC[C@@H]12` [Compound 49]: in series [3], the “fold superior than Z-isomer” value stood at 2 fold.
Regarding `NC[C@@H]1C[C@@H]2[C@H](O)[C@@H](O)[C@H](O)[C@@H](C(=O)O)N2C(=O)O1` [Compound 71], the concentration for half-maximal inhibition (IC50) in series [12] is 218 µM.
Turning to `NC[C@@H]1OC(=O)N2[C@H]1[C@H](O)[C@@H](O)[C@H](O)[C@H]2C(=O)O` [Compound 73], the 50% inhibitory concentration (IC50) in [12] is 259 µM.
With `COc1ccc(C[C@@H]2CCC[C@@H]3[C@H](O)[C@@H](O)[C@H](CO)N23)cc1` [Compound 74], the inhibition in series [8] (1 mM) is below 50%.
Turning to `CCCCCCO[C@H]1C[C@](Cl)(CO)[C@@H](O)[C@H](O)[C@H]1NC(C)=O` [Compound 75], the half-inhibitory concentration (IC50) in [8] was 170 µM.
Consider `O=C(O)[C@@H]1[C@@H](O)[C@H](O)[C@@]2(O)CC[C@@H]1N2` [Compound 77, uronic-noeurostegine], for which, in series [8], the Ki is 0.06 µM. The “selectivity for E. coli βGLU over bovine liver βGLU” value in series [13] came out at 38 fold.
Consider `CCCC[C@H]1NC[C@@H](O)[C@@H](O)[C@H](O)[C@H]1O` [Compound 85], for which the IC50 in series [8] was 261 µM.
Take `O=C(O)[C@H]1NC[C@H](O)[C@@H](O)[C@@H]1O` [Compound 94]: the “selectivity for bovine liver βGLU” value in series [12] is reported as 3 fold.
Take `Oc1ccccc1-c1nc2cc(Cl)cc(Cl)c2[nH]1` [Compound 111]: in series [3], the “fold potency vs D-SAL” value was 11 fold.
In the case of `O=C(Cn1c(-c2ccccn2)nc2ccccc21)c1ccccc1[N+](=O)[O-]` [Compound 112], the IC50 in series [1] is 4.06 µM.
For the compound `COc1ccccc1-c1nnc(-c2ccc(C(=O)NNS(=O)(=O)c3cc(Cl)c(Cl)cc3Cl)cc2)o1` [Compound 116], the half-maximal inhibitory concentration (IC50) in [1] was 1.4 µM.
`O=C(N/N=C/c1c(O)cc(O)cc1O)c1cc2cc(Cl)ccc2[nH]1` [Compound 128]: in series [3], the “fold stronger than corresponding oxadiazole variant of compound 115 library” value was 3 fold.
`O=C(N/N=C/c1ccccc1F)c1cc2cc(Cl)ccc2[nH]1` [Compound 129]: the “fold stronger than corresponding oxadiazole variant of compound 115 library” value in series [3] amounted to 43 fold.
In the case of `Oc1cccc(C(c2c[nH]c3cc(Br)ccc23)c2c[nH]c3ccc(Br)cc23)c1O` (centres unmarked) [Compound 133], the cytotoxicity result in [14] was “moderate cytotoxicity”.
As to `O=C(/C=C/c1ccc(O)cc1)O[C@@H]1O[C@H](Oc2cc(O)c3c(=O)cc(-c4ccc(O)cc4)oc3c2)[C@@H](O)[C@H](O)[C@H]1O` [Compound 148], the “fold potency vs D-SAL” value in series [15] amounted to 10 fold. Further, the cytotoxicity result in series [14] was “totally non-cytotoxic”.
As for `CCOc1ccc(NC(=S)N(CCO)Cc2cc3cc(C)cc(C)c3[nH]c2=O)cc1` [Compound 151], the CPT-11 induced diarrhoea result in series [16] is “alleviated Irinotecan (CPT-11) induced diarrhoea”. Besides, in series [17], the half-life is recorded as below 1 h.
`COc1ccc(NC(=S)N(CCO)Cc2cc3cc(C)cc(C)c3[nH]c2=O)cc1` [Compound 152]: the “fold increased potency vs glucaro-δ-lactam 61” value in [8] is reported as 100 fold. In addition, the “fold reduction in severity of diclofenac-induced anastomotic leakage” value in series [18] is 2 fold.
For the compound `COc1ccc(-c2nc(O)c3ccccc3n2)cc1OC` [Compound 160], in series [13], the “fold potency vs D-SAL” value is 76 fold.
For the compound `O=C1CCCCCC/C=C/CCCCCCC1` [Compound 191], the “inhibition of E. coli βGLU” value in series [8] (0.001 wt%) was 95.8%; in series [8] (0.1 wt% in dipropylene glycol), 100%.
Take `O=S(=O)(NCc1cccc(Cl)c1)c1cc(Cl)c(Oc2cccc(N3CCNCC3)c2)s1` [Compound 193]: the half-inhibitory concentration (IC50) result in series [6] (US 9617.239 B2) is “equipotent”; in [6] (US 9617.239 B2, listed as C00012) it was 0.02 µM.
Take `O=c1c(-c2ccc(O)cc2)coc2cc(O[C@@H]3O[C@H](CO)[C@@H](O)[C@H](O)[C@H]3O)ccc12` [daidzin]: the IC50 entry in series [8] and in series [9] was “inactive” in each case.
With `C[C@]12C=CC(=O)C=C1CC[C@@H]1[C@@H]2CC[C@@]2(C)[C@H]1CC[C@]2(C)O` [dianabol, reference compound], in [1], the IC50 entry was “inactive”.
As for `O=c1c(-c2ccc(O)cc2)coc2c([C@@H]3O[C@H](CO)[C@@H](O)[C@H](O)[C@H]3O)c(O)ccc12` [puerarin], the IC50 entry in [8] and in series [9] was “inactive” in each case.
As to `O=C(O)c1ccccc1O` [salicylic acid, reference compound], the inhibition in [19] is 25%; in series [1] (1 mM), 24.77%.
Take `O=C([O-])[C@H](O)[C@@H](O)[C@H](O)[C@H](O)CO.O=C([O-])[C@H](O)[C@@H](O)[C@H](O)[C@H](O)CO.[Zn+2]` [zinc gluconate]: the “inhibition of E. coli βGLU” value in series [8] (setting [20]) is recorded as 97%.
For the compound `NCC(=O)[O-].NCC(=O)[O-].[Zn+2]` [zinc glycinate], the “inhibition of E. coli βGLU” value in series [8] (setting [20]) was 99%.
On to tectorigenin [Compound 42], for which the “serum AST, ALT and LDH levels relative to CCl4-treated controls” value in series [10] (50 mg/kg intraperitoneal pre-treatment) was “significantly lowering”. For the same compound, in [1], the 50% inhibitory concentration (IC50) was 300 µg/mL.

The values above are taken from PMC7111419 (European Journal of Medicinal Chemistry, 2019).
